Source: patent US8114991B2, “Amino-1,3,5-triazines N-substituted with chiral bicyclic radicals, process for their preparation, compositions thereof, and their use as herbicides and plant growth regulators” (Bayer Cropscience AG, priority 2003, dated 2012)

Key:
[1] = test system: harmful plants such as Stellaria media, Lolium multiforum, Amaranthus retroflexus, Sinapis alba, Avena sativa and Setaria viridis; experiment: Pre-emergence effect on weeds (greenhouse pot test); type: in vivo; details: application rate of 1 kg or less of active ingredient per hectare; scored after 3 to 4 weeks by comparison with untreated controls
Outline: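 Seeds or rhizome pieces sown in sandy loam; test compounds (wettable powder or emulsion concentrate) applied pre-emergence to soil surface as aqueous suspension/emulsion at various dosages, 600 to 800 l water/ha. Greenhouse; plant/emergence damage scored visually after 3 to 4 weeks versus untreated controls.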

[2] = test system: harmful plants such as Sinapis alba, Echinochloa crus-galli, Lolium multiflorum, Stellaria media, Cyperus iria, Amaranthus retroflexus, Setaria viridis, Avena …; experiment: Post-emergence effect on weeds (greenhouse pot test); type: in vivo; details: application rate of 2 kg or less of active ingredient per hectare; treated in the three-leaf stage; scored after approx. 3 to 4 weeks by comparison with untreated controls

Structure (SMILES) | pre-emergence control of harmful plants (plant or emergence damage scored visually) [1] | herbicidal post-emergence activity against harmful plants (scored visually) [2] | melting point [°C]
C[C@@H](F)c1nc(N)nc(N[C@@H]2CCOc3ccccc32)n1 [Compound 1.20, 2-Amino-4-[(4R)4-chromanylamino]-6-[(1R)-1-fluoroethyl]-1,3,5-triazine] | very good pre-emergence control | very good herbicidal post-emergence activity | 110 to 112
C[C@@H](F)c1nc(N)nc(N[C@H]2c3ccccc3C[C@@H]2C)n1 [Compound 2.1, 2-Amino-4-[(1R,2S)-2-methyl-1-indanylamino]-6-[(1R)-1-fluoroethyl]-1,3,5-triazine] | very good pre-emergence control | very good herbicidal post-emergence activity | 146 to 150
Cc1nc(N)nc(N[C@@H]2CCc3ccccc32)n1 [Compound 8.1, 2-Amino-4-[(1R)-1-indanylamino]-6-methyl-1,3,5-triazine] | very good pre-emergence control | very good herbicidal post-emergence activity | 94 to 96
N#CCc1nc(N)nc(N[C@@H]2CCCc3ccccc32)n1 [Compound 8.255] | very good pre-emergence control | very good herbicidal post-emergence activity | 
Nc1nc(N[C@@H]2CCCc3ccccc32)nc(C(F)F)n1 [Compound 8.256] | very good pre-emergence control | very good herbicidal post-emergence activity | 
CCCCc1nc(N)nc(N[C@@H]2CCCc3ccc(CC)cc32)n1 [Compound 8.257] | very good pre-emergence control | very good herbicidal post-emergence activity | 
CCC(F)c1nc(N)nc(N[C@H]2c3cc(C)ccc3C[C@@H]2C)n1 (some centres unmarked) [Compound 9.37] | very good pre-emergence control | very good herbicidal post-emergence activity | 
CCCCc1nc(N)nc(N[C@H]2c3cc(C)ccc3C[C@@H]2C)n1 [Compound 9.66] | very good pre-emergence control | very good herbicidal post-emergence activity | 
Cc1ccc2c(c1)[C@H](Nc1nc(N)nc(C(C)F)n1)CC2 (some centres unmarked) [Compound 10.2] | very good pre-emergence control | very good herbicidal post-emergence activity | 
CCC(F)c1nc(N)nc(N[C@@H]2CCc3ccc(C)cc32)n1 (some centres unmarked) [Compound 10.37] | very good pre-emergence control | very good herbicidal post-emergence activity | 
CCC(F)c1nc(N)nc(N[C@@H]2CCCc3ccc(C)cc32)n1 (some centres unmarked) [Compound 10.47] | very good pre-emergence control | very good herbicidal post-emergence activity | 
CCC(F)c1nc(N)nc(N[C@@H]2CCOc3ccc(C)cc32)n1 (some centres unmarked) [Compound 10.57] | very good pre-emergence control | very good herbicidal post-emergence activity | 
CCCC(F)c1nc(N)nc(N[C@@H]2CCCc3ccc(C)cc32)n1 (some centres unmarked) [Compound 10.66] | very good pre-emergence control | very good herbicidal post-emergence activity | 
